Results on ten molecules are retold here after patent US12708649B2, “Compositions and methods for improving skin health and for the treatment and prevention of diseases, disorders and conditions associated with fungi and other pathogenic microbes” (priority 2020, dated 2026).

≈ marks a conversion by molar mass, not a printed value. Read-outs that look alike come from different tables or passages of the source. A value given as a limit tells only on which side of the number the result lay.

Assay [1] deals with DB02473. The assay is described as follows: Antibiotic MIC tests. It is filed as cell-based.
Assay [2] concerns DB10033. The assay is described as follows: Antibiotic MIC tests. The class given is cell-based, Bacillus altitudinis. The note with it: for MIC: Bacillus altitudinis.
The test system of assay [3] is DB05646. The assay can be described thus: Antibiotic MIC tests. The note with it: for MIC: Alcaligenes faecalis. The class given is cell-based, Alcaligenes faecalis.
In assay [4] the test system is DB00376. The assay can be described thus: Antibiotic MIC tests. It is filed as cell-based.
The test system of assay [5] is E. coli ATCC 25922. The note with it: MIC; cited from earlier work.
[6] abbreviates: 24 h, read-out: MIC, DB10033 24 hr.
The mark [7] stands for this setting: 48 h, read-out: MIC, DB10033 48 hr.
Where [8] appears, read: 24 h, read-out: MIC, DB05646 24 hr.
[9] abbreviates: 48 h, read-out: MIC, DB05646 48 hr.
[10] abbreviates: 24 h, read-out: MIC, DB00376 24 hr.
Where [11] appears, read: 48 h, read-out: MIC, DB00376 48 hr.
Where [12] appears, read: 48 h; read-out: MIC, DB02473 48 hr.
[13] abbreviates: 24 h; read-out: MIC, DB02473 24 hr.

As for `O=C(N[C@H](CO)[C@H](O)c1ccc([N+](=O)[O-])cc1)C(Cl)Cl` [Chloramphenicol], the minimal inhibitory concentration (MIC) came out at 4 µg/mL (≈ 12.4 µM) in assay [1] (24 h, read-out: MIC, DB02473 24 hr); 16 µg/mL (≈ 49.5 µM) in assay [1] (48 h, read-out: MIC, DB02473 48 hr); 2 µg/mL (≈ 6.19 µM) in assay [2] (setting [6]); 4 µg/mL (≈ 12.4 µM) in assay [2] (setting [7]); 8 µg/mL (≈ 24.8 µM) in assay [3] (setting [8]); 16 µg/mL (≈ 49.5 µM) in assay [3] (setting [9]). Further, the results for the minimum inhibitory concentration (MIC) in assay [4] (setting [10]) and in assay [4] (setting [11]) were 2 µg/mL (≈ 6.19 µM) and 8 µg/mL (≈ 24.8 µM), respectively.
Take `CC[C@H]1OC(=O)[C@H](C)[C@@H](O[C@H]2C[C@@](C)(OC)[C@@H](O)[C@H](C)O2)[C@H](C)[C@@H](O[C@@H]2O[C@H](C)C[C@H](N(C)C)[C@H]2O)[C@](C)(O)C[C@@H](C)C(=O)[C@H](C)[C@@H](O)[C@]1(C)O` [Erythromycin]: the MIC was 0.125 µg/mL (≈ 0.17 µM) in assay [1] (setting [12]); at most 0.06 µg/mL in assay [2] (setting [6]); at most 0.06 µg/mL in assay [2] (setting [7]); 16 µg/mL (≈ 21.8 µM) in assay [3] (setting [8]); 64 µg/mL (≈ 87.2 µM) in assay [3] (setting [9]); 0.125 µg/mL (≈ 0.17 µM) in assay [4] (setting [10]). In addition, the minimal inhibitory concentration (MIC) in assay [4] (setting [11]) is 0.5 µg/mL (≈ 0.681 µM).
Consider `O=C(O)c1cn(C2CC2)c2cc(N3CCNCC3)c(F)cc2c1=O` [Ciprofloxacin], for which the MIC in assay [1] (setting [13]) was at most 0.06 µg/mL; in assay [1] (setting [12]), 0.125 µg/mL (≈ 0.377 µM); in assay [2] (setting [6]), 0.125 µg/mL (≈ 0.377 µM); in assay [2] (setting [7]) it was 1 µg/mL (≈ 3.02 µM); in assay [3] (setting [8]), 2 µg/mL (≈ 6.04 µM); in assay [3] (setting [9]), 2 µg/mL (≈ 6.04 µM). Further, the figures for the MIC in assay [4] (setting [10]) and in assay [4] (setting [11]) were 0.0625 µg/mL (≈ 0.189 µM) and 0.5 µg/mL (≈ 1.51 µM), respectively.
Take Amoxicillin/Clavulanate (4:1): the “MIC, DB02473 24 hr” value in assay [1] (24 hr) was at most 0.06 µg/mL. Moreover, the “MIC, DB02473 48 hr” value in assay [1] (48 hr) is at most 0.06 µg/mL. In addition, in assay [2], the “MIC, DB10033 24 hr” value is at most 0.06 µg/mL and the “MIC, DB10033 48 hr” value is at most 0.06 µg/mL. In addition, in assay [3], the “MIC, DB05646 24 hr” value was 32 µg/mL and the “MIC, DB05646 48 hr” value worked out at 32 µg/mL. Also, in assay [4], the “MIC, DB00376 24 hr” value is at most 0.06 µg/mL and the “MIC, DB00376 48 hr” value is at most 0.06 µg/mL.
Consider Neomycin, for which the “MIC, DB02473 24 hr” value in assay [1] (24 hr) was at most 0.06 µg/mL. For the same molecule, in assay [1] (48 hr), the “MIC, DB02473 48 hr” value stood at 0.25 µg/mL. Also, in assay [2], the “MIC, DB10033 24 hr” value amounted to 0.125 µg/mL and the “MIC, DB10033 48 hr” value stood at 0.125 µg/mL. Besides, in assay [3], the “MIC, DB05646 24 hr” value is 8 µg/mL and the “MIC, DB05646 48 hr” value turned out to be 16 µg/mL. Also, in assay [4], the “MIC, DB00376 24 hr” value was 0.125 µg/mL and the “MIC, DB00376 48 hr” value was 0.25 µg/mL.
Consider `CN(C)c1ccc(O)c2c1C[C@H]1C[C@H]3[C@H](N(C)C)C(O)=C(C(N)=O)C(=O)[C@@]3(O)C(O)=C1C2=O` [Minocycline], for which the MIC came to 0.125 µg/mL (≈ 0.273 µM) in assay [1] (setting [13]); 0.5 µg/mL (≈ 1.09 µM) in assay [1] (setting [12]); 2 µg/mL (≈ 4.37 µM) in assay [2] (setting [6]); 2 µg/mL (≈ 4.37 µM) in assay [2] (setting [7]); 2 µg/mL (≈ 4.37 µM) in assay [3] (setting [8]); 4 µg/mL (≈ 8.74 µM) in assay [3] (setting [9]). Further, the MIC in assay [4] (setting [10]) was 0.0625 µg/mL (≈ 0.137 µM); in assay [4] (setting [11]), 0.25 µg/mL (≈ 0.546 µM).
For the molecule `CO/N=C(\C(=O)N[C@@H]1C(=O)N2C(C(=O)[O-])=C(C[N+]3(C)CCCC3)CS[C@H]12)c1csc(N)n1` [Cefepime], the MIC in assay [1] (setting [13]) was determined as 2 µg/mL (≈ 4.16 µM); in assay [1] (setting [12]) it was 4 µg/mL (≈ 8.32 µM); in assay [2] (setting [6]), 64 µg/mL (≈ 133 µM); in assay [2] (setting [7]) it was 64 µg/mL (≈ 133 µM); in assay [3] (setting [8]) it was 4 µg/mL (≈ 8.32 µM); in assay [3] (setting [9]), 8 µg/mL (≈ 16.6 µM). For the same molecule, the minimal inhibitory concentration (MIC) in assay [4] (setting [10]) was 1 µg/mL (≈ 2.08 µM); in assay [4] (setting [11]) it was 64 µg/mL (≈ 133 µM). Also, in assay [5], the “E. coli ATCC 25922 CLSI QC Range” value is 0.016 to 0.12 µg/mL.
As for `CCC[C@@H]1C[C@@H](C(=O)N[C@@H]([C@H]2O[C@H](SC)[C@H](O)[C@@H](O)[C@H]2O)[C@H](C)Cl)N(C)C1` [Clindamycin], the minimal inhibitory concentration (MIC) in assay [1] (setting [13]) was 0.5 µg/mL (≈ 1.18 µM); in assay [1] (setting [12]), 2 µg/mL (≈ 4.71 µM); in assay [2] (setting [6]), 0.125 µg/mL (≈ 0.294 µM); in assay [2] (setting [7]), 2 µg/mL (≈ 4.71 µM); in assay [3] (setting [8]) it was over 64 µg/mL; in assay [3] (setting [9]), over 64 µg/mL. The MIC in assay [4] (setting [10]) turned out to be 1 µg/mL (≈ 2.35 µM); in assay [4] (setting [11]), 4 µg/mL (≈ 9.41 µM).
`C[C@H]1COc2c(N3CCN(C)CC3)c(F)cc3c(=O)c(C(=O)O)cn1c23` [Levofloxacin]: the MIC is at most 0.06 µg/mL in assay [1] (setting [13]); at most 0.06 µg/mL in assay [2] (setting [6]); 0.125 µg/mL (≈ 0.346 µM) in assay [2] (setting [7]); 1 µg/mL (≈ 2.77 µM) in assay [3] (setting [8]); 1 µg/mL (≈ 2.77 µM) in assay [3] (setting [9]); at most 0.06 µg/mL in assay [4] (setting [10]). In addition, the minimal inhibitory concentration (MIC) in assay [4] (setting [11]) came to 0.125 µg/mL (≈ 0.346 µM).
For Polymyxin B, the “MIC, DB02473 24 hr” value in assay [1] (24 hr) came to 4 µg/mL. Besides, the “MIC, DB02473 48 hr” value in assay [1] (48 hr) was determined as 8 µg/mL. Besides, in assay [2], the “MIC, DB10033 24 hr” value worked out at 8 µg/mL and the “MIC, DB10033 48 hr” value stood at 16 µg/mL. Besides, in assay [3], the “MIC, DB05646 24 hr” value is 1 µg/mL and the “MIC, DB05646 48 hr” value was 1 µg/mL. In assay [5], the “E. coli ATCC 25922 CLSI QC Range” value is 0.25 to 2 µg/mL. In addition, in assay [4], the “MIC, DB00376 24 hr” value is 8 µg/mL and the “MIC, DB00376 48 hr” value was found to be 16 µg/mL.
